Literature values as cited in patent US20030116748A1, “Environmentally friendly compositions having anti-icing, deicing or graffiti prevention properties” (priority 1995, published 2003).
Where two headings read alike, the source gives them in different places. Blank lines part the entries; values can stand above or below the molecule they belong to.

Columns and labels:
[1] = individual component at full concentration
[2] = for OSHA PEL: 8 hour time-weighted average

Structure (SMILES): OCCO [Ethylene Glycol]
Permissible concentration limits, Water (Arizona, Massachusetts, Maine): 5.50 (Arizona, mg/L
Permissible concentration limits, Water (Connecticut): 0.10 (Connecticut) mg/L
Permissible concentration limits, Air (Federal): 125 (Federal) mg/m^3
Permissible concentration limits, Air (Massachusetts): 0.17 mg/m^3
Permissible concentration limits, Air (Nevada): 2.98 (Nevada) mg/m^3
Permissible concentration limits, Water (New Jersey): 0.29 (New Jersey) mg/L
Permissible concentration limits, Air (North Dakota): 1.25 (North mg/m^3
Permissible concentration limits, Water (U.S. EPA): 0.14 (U.S. EPA) mg/L
Permissible concentration limits, Air (Virginia): 1.00 (Virginia) mg/m^3

Solubility in Water [1]: miscible
OSHA PEL [2]: 400 ppm
OSHA PEL ([2]; value in brackets): 980 mg/m^3
NIOSH ([2]; 10 hour time-weighted average): 400 ppm
NIOSH (STEL) ([2]; Short Term Exposure Limit): 500 ppm
ACGIH TLV ([2]; time-weighted average): 400 ppm
Structure (SMILES): CC(C)O [Example 2-Propanol, 2-Propanol]

Solubility in Water [1]: miscible
Structure (SMILES): OCC(O)CO [Glycerin, 1,2,3-Propanetriol]

Permissible concentration limits, Air (Federal): 156 (Federal) mg/m^3
Structure (SMILES): CC(O)CO (centres unmarked) [Propylene Glycol, 1,2-propanediol]
